Experimental data as given in PubChem BioAssay (NCI).
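A five-concentration, 48-hour dose response in 96-well plates underlies each endpoint, interpolated linearly between surrounding concentrations. TGI marks complete inhibition of growth.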

Assays:
Test in all cases: NCI tumour cell line growth inhibition, 48 h
UACC-62 melanoma = system: UACC-62 melanoma
HT29 colon = system: HT29 colon
RXF 393 renal = system: RXF 393 renal
OVCAR-3 ovarian = system: OVCAR-3 ovarian
EKVX NSCLC = system: EKVX NSCLC
DMS 273 small cell lung = system: DMS 273 small cell lung
RXF-631 renal = system: RXF-631 renal
K-562 leukemia = system: K-562 leukemia
MALME-3M melanoma = system: MALME-3M melanoma
OVCAR-4 ovarian = system: OVCAR-4 ovarian
OVCAR-8 ovarian = system: OVCAR-8 ovarian
SW-620 colon = system: SW-620 colon
IGROV1 ovarian = system: IGROV1 ovarian
A498 renal = system: A498 renal
OVCAR-5 ovarian = system: OVCAR-5 ovarian
NCI-H23 lung = system: NCI-H23 lung
SK-MEL-28 melanoma = system: SK-MEL-28 melanoma
RPMI-8226 leukemia = system: RPMI-8226 leukemia
NCI-H226 lung = system: NCI-H226 lung
DMS 114 small cell lung = system: DMS 114 small cell lung
LOX IMVI melanoma = system: LOX IMVI melanoma
DLD-1 colon = system: DLD-1 colon
HCT-116 colon = system: HCT-116 colon
M19-MEL melanoma = system: M19-MEL melanoma
CAKI-1 renal = system: CAKI-1 renal
HOP-62 NSCLC = system: HOP-62 NSCLC
MOLT-4 leukemia = system: MOLT-4 leukemia
SF-539 CNS = system: SF-539 CNS
NCI-H460 lung = system: NCI-H460 lung
M14 melanoma = system: M14 melanoma
SK-OV-3 ovarian = system: SK-OV-3 ovarian
786-0 renal = system: 786-0 renal
HCC-2998 colon = system: HCC-2998 colon
U251 CNS = system: U251 CNS
A549 NSCLC = system: A549 NSCLC
ACHN renal = system: ACHN renal
SNB-78 CNS = system: SNB-78 CNS
SNB-19 CNS = system: SNB-19 CNS
UO-31 renal = system: UO-31 renal
KM12 colon = system: KM12 colon
SF-295 CNS = system: SF-295 CNS
UACC-257 melanoma = system: UACC-257 melanoma
TK-10 renal = system: TK-10 renal
SN12C renal = system: SN12C renal
SNB-75 CNS = system: SNB-75 CNS
HCT-15 colon = system: HCT-15 colon
SK-MEL-2 melanoma = system: SK-MEL-2 melanoma
SK-MEL-5 melanoma = system: SK-MEL-5 melanoma
HOP-92 NSCLC = system: HOP-92 NSCLC
HOP-18 NSCLC = system: HOP-18 NSCLC
COLO 205 colon = system: COLO 205 colon
SF-268 CNS = system: SF-268 CNS
NCI-H522 lung = system: NCI-H522 lung
LXFL 529 NSCLC = system: LXFL 529 NSCLC
HL-60(TB) leukemia = system: HL-60(TB) leukemia
CCRF-CEM leukemia = system: CCRF-CEM leukemia
KM20L2 colon = system: KM20L2 colon

## CC(C)(C)c1ccc2c(c1)S(=O)(=O)Nc1cccc(c1)NS(=O)(=O)c1cc(C(C)(C)C)ccc1OCCOCCO2
UACC-62 melanoma
  TGI: > 100 µM
HT29 colon
  TGI: > 100 µM
RXF 393 renal
  TGI: > 100 µM
OVCAR-3 ovarian
  TGI: > 100 µM
EKVX NSCLC
  TGI: > 100 µM
DMS 273 small cell lung
  TGI: > 100 µM
RXF-631 renal
  TGI: > 100 µM
K-562 leukemia
  TGI: > 100 µM
MALME-3M melanoma
  TGI: > 100 µM
OVCAR-4 ovarian
  TGI: > 100 µM
OVCAR-8 ovarian
  TGI: > 100 µM
SW-620 colon
  TGI: > 100 µM
IGROV1 ovarian
  TGI: > 100 µM
A498 renal
  TGI: > 100 µM
OVCAR-5 ovarian
  TGI: > 100 µM
NCI-H23 lung
  TGI: > 100 µM
SK-MEL-28 melanoma
  TGI: > 100 µM
RPMI-8226 leukemia
  TGI: > 100 µM
NCI-H226 lung
  TGI: > 100 µM
DMS 114 small cell lung
  TGI: > 100 µM
LOX IMVI melanoma
  TGI: > 100 µM
DLD-1 colon
  TGI: > 100 µM
HCT-116 colon
  TGI: > 100 µM
M19-MEL melanoma
  TGI: > 100 µM
CAKI-1 renal
  TGI: > 100 µM
HOP-62 NSCLC
  TGI: > 100 µM
MOLT-4 leukemia
  TGI: > 100 µM
SF-539 CNS
  TGI: > 100 µM
NCI-H460 lung
  TGI: > 100 µM
M14 melanoma
  TGI: > 100 µM
SK-OV-3 ovarian
  TGI: > 100 µM
786-0 renal
  TGI: > 100 µM
HCC-2998 colon
  TGI: > 100 µM
U251 CNS
  TGI: > 100 µM
A549 NSCLC
  TGI: > 100 µM
ACHN renal
  TGI: > 100 µM
SNB-78 CNS
  TGI: > 100 µM
SNB-19 CNS
  TGI: > 100 µM
UO-31 renal
  TGI: > 100 µM
KM12 colon
  TGI: > 100 µM
SF-295 CNS
  TGI: > 100 µM
UACC-257 melanoma
  TGI: > 100 µM
TK-10 renal
  TGI: > 100 µM
SN12C renal
  TGI: > 100 µM
SNB-75 CNS
  TGI: > 100 µM
HCT-15 colon
  TGI: > 100 µM
SK-MEL-2 melanoma
  TGI: > 100 µM
SK-MEL-5 melanoma
  TGI: > 100 µM
HOP-92 NSCLC
  TGI: > 100 µM
HOP-18 NSCLC
  TGI: > 100 µM
COLO 205 colon
  TGI: > 100 µM
SF-268 CNS
  TGI: > 100 µM

## O=S1[C@H](c2ccccc2)c2c(-c3ccccc3)sc(-c3ccccc3)c2[C@@H]1c1ccccc1 (stereo not given in full)
UACC-62 melanoma
  TGI: > 100 µM
HT29 colon
  TGI: > 100 µM
RXF 393 renal
  TGI: > 100 µM
OVCAR-3 ovarian
  TGI: > 100 µM
EKVX NSCLC
  TGI: > 100 µM
DMS 273 small cell lung
  TGI: > 100 µM
RXF-631 renal
  TGI: > 100 µM
K-562 leukemia
  TGI: > 100 µM
MALME-3M melanoma
  TGI: > 100 µM
OVCAR-4 ovarian
  TGI: > 100 µM
OVCAR-8 ovarian
  TGI: > 100 µM
SW-620 colon
  TGI: > 100 µM
IGROV1 ovarian
  TGI: > 100 µM
OVCAR-5 ovarian
  TGI: > 100 µM
NCI-H23 lung
  TGI: > 100 µM
SK-MEL-28 melanoma
  TGI: > 100 µM
RPMI-8226 leukemia
  TGI: > 100 µM
DMS 114 small cell lung
  TGI: > 100 µM
LOX IMVI melanoma
  TGI: > 100 µM
DLD-1 colon
  TGI: > 100 µM
M19-MEL melanoma
  TGI: > 100 µM
CAKI-1 renal
  TGI: > 100 µM
HOP-62 NSCLC
  TGI: > 100 µM
MOLT-4 leukemia
  TGI: > 100 µM
SF-539 CNS
  TGI: > 100 µM
NCI-H522 lung
  TGI: 27.2 µM
LXFL 529 NSCLC
  TGI: > 100 µM
NCI-H460 lung
  TGI: > 100 µM
M14 melanoma
  TGI: > 100 µM
HL-60(TB) leukemia
  TGI: 40.6 µM
SK-OV-3 ovarian
  TGI: > 100 µM
786-0 renal
  TGI: > 100 µM
HCC-2998 colon
  TGI: > 100 µM
U251 CNS
  TGI: > 100 µM
CCRF-CEM leukemia
  TGI: > 100 µM
A549 NSCLC
  TGI: > 100 µM
ACHN renal
  TGI: > 100 µM
SNB-19 CNS
  TGI: > 100 µM
UO-31 renal
  TGI: > 100 µM
KM12 colon
  TGI: > 100 µM
SF-295 CNS
  TGI: > 100 µM
UACC-257 melanoma
  TGI: > 100 µM
TK-10 renal
  TGI: > 100 µM
SN12C renal
  TGI: > 100 µM
SNB-75 CNS
  TGI: 87.9 µM
HCT-15 colon
  TGI: > 100 µM
KM20L2 colon
  TGI: > 100 µM
SK-MEL-2 melanoma
  TGI: > 100 µM
SK-MEL-5 melanoma
  TGI: > 100 µM
HOP-92 NSCLC
  TGI: 67.9 µM
HOP-18 NSCLC
  TGI: > 100 µM
COLO 205 colon
  TGI: > 100 µM
SF-268 CNS
  TGI: > 100 µM
